Measurements as given in patent publication EP0720988A1, “Pseudopeptides containing trifluoromethyl substituted 2-azabicyclooctane” (BAYER AG, priority 1995, dated 1996).
Structures can show the parent of a compound that is named as a salt. Where two headings read alike, the source gives them in different places.

What was measured:
HIV-1-Protease [1] = target: T1, HIV-1-Protease (Human immunodeficiency virus type 1 group M subtype B, UniProt P04585); test: HIV-specific protease enzyme assay (purified HIV protease, synthetic peptide substrate, RP-HPLC analysis of cleavage products); assay type: biochemical; conditions: synthetic peptide imitating a Gag precursor cleavage site
T1 construct: Gereinigte HIV-Protease wurde mit synthetischem Peptid

HIV-1-Protease [2] = target: T1, HIV-1-Protease; test: as above; assay type: biochemical; conditions: synthetic peptide imitating a Gag precursor cleavage site, 50% inhibition of protease activity
Excerpt: Es wurde überraschend gefunden, daß die Verbindungen der allgemeinen Formel (I) eine außerordentlich starke Wirkung gegen Retroviren besitzen. Dies wird mit einem HIV-spezifischen Protease-Enzymtest belegt.
Die Ergebnisse der unten aufgeführten Beispiele wurden nach dem in den folgenden Literaturangaben [vgl. Hansen, J., Billich, S., Schulze, T., Sukrow, S. and Mölling, K. (1988), EMBO Journal, Vol, 7, No. 6, pp. 1785 - 1791] beschriebenen HIV-Testsystem ermittelt: Gereinigte HIV-Protease wurde mit synthetischem Peptid, das eine Schnittstelle im Gag-Precursor-Protein imitiert und eine in vivo-Spaltstelle der HIV-Protease darstellt, inkubiert. Die entstandenen Spaltprodukte des synthetischen Peptids wurden über Reverse Phase High Performance Liquid Chromatography (RP-HPLC) analysiert. Die angegebenen IC50-Werte beziehen sich auf die Substanzkonzentration, die unter den oben aufgeführten Testbedingungen eine 50%ige Hemmung der Protease-Aktivität bewirkt.

HIV = HIV infection in cell culture (PBL), suppression of virus-induced syncytia formation; assay type: cell-based; conditions: 50% suppression of virus-induced syncytia, read between day 3 and 6 after infection
Procedure: HIV-Infektion in Zellkultur
Der HIV-Test wurde mit geringen Modifikationen nach der Methode von Pauwels et al. [vgl. Journal of Virological Methods 20, (1988), 309-321] durchgeführt.
Normale menschliche Blutlymphozyten (PBL's) wurden über Ficoll-Hypaque angereichert und im RPMI 1640, 20% fötales Kälberserum mit Phytohaemagglutinin (90 µg/ml) und Interleukin-2 (40 U/ml) stimuliert. Zur Infektion mit dem in-fektiösen HIV wurden PBL's pelletiert und das Zellpellet wurde anschließend in 1 ml HIV-Virusadsorptionslösung suspendiert und 1 Stunde bei 37°C inkubiert.
Die Virusadsorptionslösung wurde zentrifugiert und das infizierte Zellpellet in Wachstumsmedium aufgenommen, so daß 1 x 10^5 Zellen pro ml eingestellt waren. Die derart infizierten Zellen wurden zu 1 x 10^4 Zellen/Napf in die Näpfe von 96er Mikrotiterplatten pipettiert.
Die erste vertikale Reihe der Mikrotiterplatte enthielt nur Wachstumsmedium und Zellen, die nicht infiziert, aber ansonsten genauso wie oben beschrieben, behandelt worden waren (Zellkontrolle). Die zweite vertikale Reihe der Mikrotiterplatte erhielt nur HIV-infizierte Zellen (Viruskontrolle) in Wachstumsmedium. Die übrigen Näpfe enthielten die erfindungsgemäßen Verbindungen in unterschiedlichen Konzentrationen, ausgehend von den Näpfen der 3. vertikalen Reihe der Mikrotiterplatte, von der die Prüfsubstanzen in 2er Schritten 2^10fach verdünnt wurden.
Die Testansätze wurden so lange bei 37°C inkubiert, bis in der unbehandelten Viruskontrolle die für das HIV typische Syncytienbildung auftrat (zwischen Tag 3 und 6 nach Infektion), die dann mikroskopisch ausgewertet wurde. In der unbehandelten Viruskontrolle resultierten unter diesen Testbedingungen etwa 20 Syncytien, währen die unbehandelte Zellkontrolle keine Syncytien aufwies.
Die IC50-Werte wurden als die Konzentration der behandelten und infizierten Zellen ermittelt, bei der 50% (ca. 10 Syncytien) der virusinduzierten Syncytien durch die Behandlung mit der erfindungsgemäßen Verbindung unterdrückt waren.

[3] = HIV-1-Protease-Inhibition IC50, purified HIV protease
[4] = read-out: PBL IC50, HIV-infected normal human blood lymphocytes (PBL's)
[5] = Human immunodeficiency virus 1, Lymphocyte, 72 h, read-out: PBL IC50, HIV-infected normal human blood lymphocytes (PBL's)
[6] = purified HIV protease, read-out: HIV-1-Protease-Inhibition IC50

| SMILES | HIV-1-Protease-Inhibition IC95 (HIV-1-Protease [1]) | also measured |
| --- | --- | --- |
| NC(=O)C[C@H](NC(=O)c1cnc2ccccc2n1)C(=O)N[C@@H](Cc1ccccc1)[C@H](O)CN1[C@H](C(F)(F)F)C[C@@H]2CCC[C@@H]21 [Beispiel 1] | 1,9 x 10^-10 Mol/l | IC50 (HIV-1-Protease [2]; [3]): 0.018 nM; IC50 (HIV; [4]): 81.7 nM |
| NC(=O)C[C@H](NC(=O)c1cnc2ccccc2n1)C(=O)N[C@@H](Cc1ccccc1)[C@H](O)CN1[C@H](C(F)(F)F)C[C@@H]2CCC[C@@H]21 [Beispiel 2] | 3,6 x 10^-11 Mol/l | IC50 (HIV-1-Protease [2]; read-out: HIV-1-Protease-Inhibition IC50, purified HIV protease): 0.017 nM; IC50 (HIV; [4]): 38.5 nM |
| NC(=O)C[C@H](NC(=O)c1ccc2ccccc2n1)C(=O)N[C@@H](Cc1ccccc1)[C@H](O)CN1[C@H](C(F)(F)F)C[C@@H]2CCC[C@@H]21 [Beispiel 3, (2R,3S)-3-(Chinolin-2-yl-L-asparaginyl)-amino-1-[(S,S,S)-3-trifluormethyl-2-azabicyclo[3.3.0]octan-2-yl}-2-hydroxy-4-phenyl-butan] | 2,2 x 10^-8 Mol/l | IC50 (HIV-1-Protease [2]; [3]): 0.24 nM; IC50 (HIV; [5]): 35 nM |
| NC(=O)C[C@H](NC(=O)c1ccc2ccccc2n1)C(=O)N[C@@H](Cc1ccccc1)[C@H](O)CN1[C@H](C(F)(F)F)C[C@@H]2CCC[C@@H]21 [Beispiel 4, (2R,3S)-3-(Chinolin-2-yl-L-asparaginyl)-amino-1-[(S,S,S)-3-trifluormethyl-2-azabicylco[3.3.0]octan-2-yl}-2-hydroxy-4-phenyl-butan Hydrochlorid] | 3,3 x 10^-8 Mol/l | IC50 (HIV-1-Protease [2]; [3]): 0.6 nM; IC50 (HIV; [4]): 22.5 nM |
| Cc1cc2ncc(C(=O)N[C@@H](CC(N)=O)C(=O)N[C@@H](Cc3ccccc3)[C@H](O)CN3[C@H](C(F)(F)F)C[C@@H]4CCC[C@@H]43)nc2cc1C [Beispiel 8] | 3,2 x 10^-6 Mol/l |  |
| Cc1cc2ncc(C(=O)N[C@@H](CC(N)=O)C(=O)N[C@@H](Cc3ccccc3)[C@H](O)CN3[C@H](C(F)(F)F)C[C@@H]4CCC[C@@H]43)nc2cc1C [Beispiel 9] | 2,6 x 10^-9 Mol/l |  |
| Cc1ccc2nc(C(=O)N[C@@H](CC(N)=O)C(=O)N[C@@H](Cc3ccccc3)[C@H](O)CN3[C@H](C(F)(F)F)C[C@@H]4CCC[C@@H]43)ccc2c1 [Beispiel 10] | 3,1 x 10^-7 Mol/l |  |
| Cc1ccc2nc(C(=O)N[C@@H](CC(N)=O)C(=O)N[C@@H](Cc3ccccc3)[C@H](O)CN3[C@H](C(F)(F)F)C[C@@H]4CCC[C@@H]43)ccc2c1 [Beispiel 11] | 3,6 x 10^-11 Mol/l |  |
| NC(=O)C[C@H](NC(=O)c1ccc2cc(Cl)ccc2n1)C(=O)N[C@@H](Cc1ccccc1)[C@H](O)CN1[C@H](C(F)(F)F)C[C@@H]2CCC[C@@H]21 [Beispiel 12] | 3,7 x 10^-9 Mol/l |  |
| NC(=O)C[C@H](NC(=O)c1ccc2cc(Cl)ccc2n1)C(=O)N[C@@H](Cc1ccccc1)[C@H](O)CN1[C@H](C(F)(F)F)C[C@@H]2CCC[C@@H]21 [Beispiel 13] | 2,5 x 10^-10 Mol/l |  |
| NC(=O)C[C@H](NC(=O)COc1ccccc1-c1ccccc1)C(=O)N[C@@H](Cc1ccccc1)[C@H](O)CN1[C@H](C(F)(F)F)C[C@@H]2CCC[C@@H]21 [Beispiel 14] | 1,8 x 10^-7 Mol/l | IC50 (HIV-1-Protease [2]; [6]): 3.5 nM; IC50 (HIV; [5]): 600 nM |
| NC(=O)C[C@H](NC(=O)COc1ccccc1-c1ccccc1)C(=O)N[C@@H](Cc1ccccc1)[C@H](O)CN1[C@H](C(F)(F)F)C[C@@H]2CCC[C@@H]21 [Beispiel 15] | 2,9 x 10^-8 Mol/l | IC50 (HIV-1-Protease [2]; [6]): 2.2 nM |
| Cc1c(O)cccc1C(=O)N[C@@H](CC(N)=O)C(=O)N[C@@H](Cc1ccccc1)[C@H](O)CN1[C@H](C(F)(F)F)C[C@@H]2CCC[C@@H]21 [Beispiel 16] | 2,7 x 10^-6 Mol/l | IC50 (HIV-1-Protease [2]; [6]): 200 nM |
| Cc1cnc(C)c(COC(=O)N[C@@H](CC(N)=O)C(=O)N[C@@H](Cc2ccccc2)[C@H](O)CN2[C@H](C(F)(F)F)C[C@@H]3CCC[C@@H]32)c1 [Beispiel 17] | 3,7 x 10^-5 Mol/l | IC50 (HIV-1-Protease [2]; [6]): 1900 nM |
